Experimental data reported in patent publication US7739055B2, “Methods and systems for generating and evaluating peptides” (priority 2005, dated 2010).
Values after ≈ are worked out from the molar mass of the structure shown. Like-named read-outs stand apart in the source and are kept apart here. Where a SMILES comes first, the peptide text is derived from it.

Tests used:
[1] = test system: Escherichia coli
[2] = test system: Sterne strain of Bacillus anthracis
[3] = test system: Smith Diffuse strain of Staphylococcus aureus
[4] = test system: B. cereus
[5] = first concentration that prohibits growth by OD at 24 hours, Table 1

Compound: CC[C@H](C)[C@H](NC(=O)[C@H](CC(C)C)NC(=O)[C@H](C)NC(=O)[C@@H]1CCCN1C(=O)[C@H](C)NC(=O)[C@@H](NC(=O)[C@H](CCCCN)NC(=O)[C@@H](N)CCCNC(=N)N)C(C)C)C(=O)N[C@@H](CCCCN)C(=O)N[C@@H](CO)C(=O)N[C@@H](Cc1ccccc1)C(=O)N[C@H](C(=O)N[C@@H](Cc1ccccc1)C(=O)N[C@@H](CC(C)C)C(=O)N[C@@H](Cc1ccccc1)C(=O)N[C@@H](CCCCN)C(=O)N[C@@H](Cc1ccccc1)C(=O)N[C@@H](CCCCN)C(=O)N[C@@H](CCCCN)C(=O)NCC(=O)O)C(C)C [Shuffled 51] (H-RKVAPALIKSFVFLFKFKKG-OH; N-terminus and C-terminus assumed)
- MIC E. coli [1]: + (key: +: MIC greater than 256 ug/mL; ++: MIC greater than 128 ug/mL, not sufficiently soluble to test as 256 ug/mL)
- MIC B. anthracis [2]: 256 µg/mL (≈ 110 µM)
- MIC S. aureus ([3]; Smith Diffuse strain of): 128 µg/mL (≈ 55.1 µM)

Compound: KVFIATLVVSSFLLAKPPRV [Shuffled 35]
- MIC E. coli [1, 5]: + (MIC greater than 256 ug/mL)
- MIC B. anthracis [2]: + (key: +: MIC greater than 256 ug/mL; ++: MIC greater than 128 ug/mL, not sufficiently soluble to test as 256 ug/mL)
- MIC B. cereus [4, 5]: + (MIC greater than 256 ug/mL)
- MIC S. aureus ([3]; Smith Diffuse strain, Table 1): + (MIC greater than 256 ug/mL)

Compound: CC[C@H](C)[C@H](NC(=O)[C@H](CCCCN)NC(=O)[C@H](CCCCN)NC(=O)[C@H](Cc1ccccc1)NC(=O)[C@H](CC(C)C)NC(=O)[C@H](CCCCN)NC(=O)[C@H](Cc1c[nH]c2ccccc12)NC(=O)[C@@H](N)CCCCN)C(=O)NCC(=O)N[C@@H](C)C(=O)N[C@H](C(=O)N[C@@H](CC(C)C)C(=O)N[C@@H](CCCCN)C(=O)N[C@H](C(=O)N[C@@H](CC(C)C)C(N)=O)C(C)C)C(C)C [Cec Mel Hyb, KWKLFKKIGAVLKVL-NH2] (H-KWKLFKKIGAVLKVL-NH2)
- MIC B. anthracis [2]: 16 µg/mL (≈ 9.04 µM)
- MIC B. cereus ([4]; 24 h): 8 µg/mL (≈ 4.52 µM)
- MIC S. aureus ([3]; Smith Diffuse strain of): 4 µg/mL (≈ 2.26 µM)

Compound: CC[C@H](C)[C@H](NC(=O)[C@@H](NC(=O)[C@H](C)NC(=O)[C@@H]1CCCN1C(=O)[C@H](Cc1ccccc1)NC(=O)[C@@H](NC(=O)[C@H](CCCCN)NC(=O)[C@H](CO)NC(=O)[C@H](C)NC(=O)[C@@H](NC(=O)[C@H](CCCNC(=N)N)NC(=O)[C@H](Cc1ccccc1)NC(=O)[C@H](CC(C)C)NC(=O)[C@H](C)NC(=O)CNC(=O)[C@@H](N)CC(C)C)C(C)C)C(C)C)C(C)C)C(=O)N[C@@H](CO)C(=O)N[C@@H](CCSC)C(=O)N[C@H](C(=O)N[C@@H](CCCCN)C(=O)O)C(C)C [Peptide 22] (H-LGALFRVASKVFPAVISMVK-OH; N-terminus and C-terminus assumed)
- MIC E. coli ([1]; 24 h): 256 µg/mL (≈ 120 µM)
- MIC B. anthracis [2]: 64 µg/mL (≈ 30 µM)
- MIC B. cereus ([4]; 24 h): 64 µg/mL (≈ 30 µM)
- MIC S. aureus ([3]; Smith Diffuse strain of): 64 µg/mL (≈ 30 µM)

Compound: CC(C)C[C@H](NC(=O)[C@H](CC(C)C)NC(=O)[C@H](CO)NC(=O)[C@H](CCCCN)NC(=O)[C@H](CC(C)C)NC(=O)[C@@H]1CCCN1C(=O)[C@H](C)NC(=O)[C@H](Cc1ccccc1)NC(=O)[C@@H]1CCCN1C(=O)[C@H](CC(C)C)NC(=O)[C@@H](NC(=O)[C@H](CCCCN)NC(=O)[C@H](CCCCN)NC(=O)[C@@H](NC(=O)[C@H](CO)NC(=O)[C@@H](N)C(C)C)C(C)C)C(C)C)C(=O)N[C@@H](CO)C(=O)N[C@@H](Cc1ccccc1)C(=O)N[C@@H](C)C(=O)N[C@@H](Cc1ccccc1)C(=O)O [Shuffled 63] (H-VSVKKVLPFAPLKSLLSFAF-OH; N-terminus and C-terminus assumed)
- MIC E. coli ([1]; 24 h): 256 µg/mL (≈ 117 µM)
- MIC B. cereus ([4]; 24 h): 256 µg/mL (≈ 117 µM)
- MIC S. aureus ([3]; Smith Diffuse strain, Table 1): + (MIC greater than 256 ug/mL)

Compound: CC(C)C[C@H](NC(=O)[C@@H](NC(=O)[C@@H]1CCCN1C(=O)[C@H](CC(C)C)NC(=O)[C@@H](N)Cc1ccccc1)C(C)C)C(=O)N[C@H](C(=O)N[C@@H](CCCCN)C(=O)N[C@H](C(=O)N[C@@H](Cc1ccccc1)C(=O)N[C@@H](CCCNC(=N)N)C(=O)N[C@@H](Cc1ccc(O)cc1)C(=O)N[C@@H](CO)C(=O)N[C@@H](CCCCN)C(=O)N[C@@H](CCCCN)C(=O)N[C@H](C(=O)N[C@@H](C)C(=O)N[C@@H](C)C(=O)NCC(=O)N[C@@H](CS)C(=O)N[C@@H](Cc1ccccc1)C(=O)O)[C@@H](C)O)C(C)C)C(C)C [Shuffled 5] (H-FLPVLVKVFRYSKKTAAGCF-OH; N-terminus and C-terminus assumed)
- MIC E. coli [1, 5]: ++ (MIC greater than 128 ug/mL, not sufficiently soluble to test as 256 ug/mL)
- MIC B. anthracis [2]: + (key: +: MIC greater than 256 ug/mL; ++: MIC greater than 128 ug/mL, not sufficiently soluble to test as 256 ug/mL)
- MIC B. cereus ([4]; 24 h): 64 µg/mL (≈ 28.1 µM)
- MIC S. aureus ([3]; Smith Diffuse strain, Table 1): + (MIC greater than 256 ug/mL)

Compound: CC(C)C[C@H](NC(=O)[C@H](CCCCN)NC(=O)[C@H](Cc1ccccc1)NC(=O)[C@H](CC(C)C)NC(=O)[C@@H](NC(=O)[C@@H]1CCCN1C(=O)[C@@H](N)CC(C)C)C(C)C)C(=O)N[C@@H](C)C(=O)N[C@@H](CO)C(=O)N[C@@H](CCCCN)C(=O)N[C@H](C(=O)N[C@@H](Cc1ccccc1)C(=O)N1CCC[C@H]1C(=O)N[C@@H](C)C(=O)N[C@H](C(=O)N[C@@H](Cc1ccccc1)C(=O)N[C@@H](CO)C(=O)N[C@@H](CO)C(=O)N[C@@H](CC(C)C)C(=O)N[C@@H](CCCCN)C(=O)O)C(C)C)C(C)C [Peptide 63] (H-LPVLFKLASKVFPAVFSSLK-OH; N-terminus and C-terminus assumed)
- MIC E. coli ([1]; 24 h): 256 µg/mL (≈ 117 µM)
- MIC B. anthracis [2]: 128 µg/mL (≈ 58.4 µM)
- MIC B. cereus ([4]; 24 h): 64 µg/mL (≈ 29.2 µM)
- MIC S. aureus ([3]; Smith Diffuse strain of): 128 µg/mL (≈ 58.4 µM)

Compound: SVPSVGAVLFFKRAAVMKLI [Shuffled 22]
- MIC E. coli [1, 5]: + (MIC greater than 256 ug/mL)
- MIC B. anthracis [2]: + (key: +: MIC greater than 256 ug/mL; ++: MIC greater than 128 ug/mL, not sufficiently soluble to test as 256 ug/mL)
- MIC B. cereus [4, 5]: + (MIC greater than 256 ug/mL)
- MIC S. aureus ([3]; Smith Diffuse strain, Table 1): + (MIC greater than 256 ug/mL)

Compound: CC[C@H](C)[C@H](NC(=O)[C@H](CC(C)C)NC(=O)[C@H](C)NC(=O)[C@@H]1CCCN1C(=O)[C@H](Cc1ccccc1)NC(=O)[C@@H](NC(=O)[C@H](CCCCN)NC(=O)[C@H](CO)NC(=O)[C@H](C)NC(=O)[C@@H](NC(=O)[C@H](CCCNC(=N)N)NC(=O)[C@H](Cc1ccccc1)NC(=O)[C@@H](NC(=O)[C@@H](NC(=O)[C@@H]1CCCN1C(=O)[C@@H](N)CC(C)C)C(C)C)C(C)C)C(C)C)C(C)C)C(=O)N[C@@H](CO)C(=O)N[C@@H](CCCCN)C(=O)N[C@@H](CC(C)C)C(=O)N[C@H](C(=O)O)[C@@H](C)O [Peptide 35] (H-LPVVFRVASKVFPALISKLT-OH; N-terminus and C-terminus assumed)
- MIC E. coli [1]: + (key: +: MIC greater than 256 ug/mL; ++: MIC greater than 128 ug/mL, not sufficiently soluble to test as 256 ug/mL)
- MIC B. anthracis [2]: 128 µg/mL (≈ 58.6 µM)
- MIC B. cereus ([4]; 24 h): 256 µg/mL (≈ 117 µM)
- MIC S. aureus ([3]; Smith Diffuse strain of): 256 µg/mL (≈ 117 µM)

Compound: ASPTVFRSSVFLSLFVVAKK [Shuffled 43]
- MIC E. coli [1, 5]: + (MIC greater than 256 ug/mL)
- MIC B. anthracis [2]: + (key: +: MIC greater than 256 ug/mL; ++: MIC greater than 128 ug/mL, not sufficiently soluble to test as 256 ug/mL)
- MIC B. cereus [4, 5]: + (MIC greater than 256 ug/mL)
- MIC S. aureus ([3]; Smith Diffuse strain, Table 1): + (MIC greater than 256 ug/mL)

Compound: CC[C@H](C)[C@H](NC(=O)[C@H](CC(=O)O)NC(=O)[C@H](CCCCN)NC(=O)[C@@H](NC(=O)[C@H](CC(C)C)NC(=O)[C@H](CO)NC(=O)[C@H](CCSC)NC(=O)[C@H](CC(C)C)NC(=O)CN)C(C)C)C(=O)N[C@@H](C)C(=O)N[C@@H](CCCCN)C(=O)N[C@@H](CC(C)C)C(=O)N[C@@H](C)C(=O)N[C@@H](C)C(=O)N[C@@H](CCCCN)C(=O)N[C@@H](CCC(N)=O)C(=O)NCC(=O)N[C@@H](C)C(=O)N[C@@H](CCCCN)C(=O)N[C@@H](CCC(N)=O)C(=O)O [Peptide 9] (H-GLMSLVKDIAKLAAKQGAKQ-OH; N-terminus and C-terminus assumed)
- MIC E. coli ([1]; 24 h): 256 µg/mL (≈ 124 µM)
- MIC B. cereus [4, 5]: + (MIC greater than 256 ug/mL)

Compound: SVIGKIASKVVPSVYCAISK [Peptide 44]
- MIC E. coli [1, 5]: + (MIC greater than 256 ug/mL)
- MIC B. cereus [4, 5]: + (MIC greater than 256 ug/mL)

Compound: FLPFVGRIASKVVPSVIGKV [Peptide 75]
- MIC E. coli [1, 5]: + (MIC greater than 256 ug/mL)
- MIC B. cereus [4, 5]: + (MIC greater than 256 ug/mL)

Compound: KFDPLEGAPMARGIVLEKVG [Peptide 74]
- MIC E. coli [1, 5]: + (MIC greater than 256 ug/mL)
- MIC B. cereus [4, 5]: + (MIC greater than 256 ug/mL)

Compound: LPVVFKIASKVVPSVISKIT [Peptide 83]
- MIC E. coli [1, 5]: + (MIC greater than 256 ug/mL)
- MIC B. cereus [4, 5]: + (MIC greater than 256 ug/mL)

Compound: CC(C)[C@H](N)C(=O)N[C@H](C(=O)N[C@@H](Cc1ccccc1)C(=O)N[C@@H](CCCNC(=N)N)C(=O)N[C@H](C(=O)N[C@@H](C)C(=O)N[C@@H](CO)C(=O)N[C@@H](CCCCN)C(=O)N[C@H](C(=O)N[C@@H](Cc1ccccc1)C(=O)N1CCC[C@H]1C(=O)N[C@@H](C)C(=O)N[C@H](C(=O)N[C@@H](Cc1ccc(O)cc1)C(=O)N[C@@H](CS)C(=O)N[C@H](C(=O)N[C@H](C(=O)N[C@@H](CO)C(=O)N[C@@H](CCCCN)C(=O)N[C@@H](CCCCN)C(=O)O)C(C)C)[C@@H](C)O)C(C)C)C(C)C)C(C)C)C(C)C [Peptide 2] (H-VVFRVASKVFPAVYCTVSKK-OH; N-terminus and C-terminus assumed)
- MIC E. coli ([1]; 24 h): 128 µg/mL (≈ 57.4 µM)
- MIC B. cereus [4, 5]: + (MIC greater than 256 ug/mL)

Compound: KVGKGSYPCSFVKVVAKVSV [Shuffled 85]
- MIC E. coli [1, 5]: + (MIC greater than 256 ug/mL)
- MIC B. cereus [4, 5]: + (MIC greater than 256 ug/mL)

Compound: AKKAQKSGAQTIVKIFAKGM [Shuffled 39]
- MIC E. coli [1, 5]: + (MIC greater than 256 ug/mL)
- MIC B. cereus [4, 5]: + (MIC greater than 256 ug/mL)

Compound: STVKVASKLAVVVSPISKGS [Shuffled 36]
- MIC E. coli [1, 5]: + (MIC greater than 256 ug/mL)
- MIC B. cereus [4, 5]: + (MIC greater than 256 ug/mL)
